For orientation: IC50 means the concentration needed to halve the response being measured.

The results in this text go back to US20250381243A1, “HETEROCYCLES AND USES THEREOF” (Kumquat Biosciences Inc., priority 2022, published 2025).

The structures appear in SMILES notation.

The subject of the first experiment is A549 cells. Description: Cell proliferation assay (CellTiter-Glo), cells with K-Ras G12S mutation. Type of experiment: cell-based. As to conditions: Homo sapiens, 500 nM to 5 μM (mixed units), read-out: Inhibition of A549 Cells (IC50). How it is done: A549 (ATCC CRL-185) and LS123 (ATCC CRL-255) cell lines comprise a G12S mutation and can be used to assess Ras cellular signaling in vitro, e.g., in response to treatment with a compound described herein. A549 culture medium is prepared with RPMI-1640 and 10% heat-inactivated FBS. LS123 culture medium is prepared with RPMI-1640 and 10% heat-inactivated FBS. A CellTiter-Glo (CTG) luminescent based assay (Promega) is used to assess growth of the cells, as a measurement of the ability of the compounds herein to inhibit Ras signaling in the cells. The cells (e.g., 800 per well) are seeded in their respective culture medium in standard tissue culture-treated 384-well format plates (Falcon #08-772-116) or ultra-low attachment surface 384-well format plates (S-Bio #MS-9384WZ). The day after plating, cells are treated with a dilution series (e.g., a 10 point 3-fold dilution series) of the compounds herein (e.g., approximately 40 μl final volume per well). Cell viability can be monitored (e.g., approximately 6 days later) according to the manufacturer's recommended instructions, where CellTiter-Glo reagent is added (e.g., approximately 10 μl), vigorously mixed, covered, and placed on a plate shaker (e.g., approximately for 20 min) to ensure sufficient cell lysis prior to assessment of luminescent signal. The IC50 values are determined using the four parameter fit. The resulting IC50 value is a measurement of the ability of the test compound to reduce cell growth of Ras-driven cells (e.g., tumor cell lines) in vitro and/or in vivo.
For the compound `CC1CC(N(C)C(=O)n2cnc(Cl)n2)CN1c1nc(OC[C@@]23CCCN2C[C@H](F)C3)nc2c(F)c(-c3ccc(F)c4sc(N)c(C#N)c34)c(Cl)cc12` (single isomer, unassigned) [Compound 105], the concentration for half-maximal inhibition (IC50) fell in the range of 500 to 5000 nM.

Take `CC1C2C(CCN2c2nc(OC[C@@]34CCCN3C[C@H](F)C4)nc3c(F)c(-c4ccc(F)c5sc(N)c(C#N)c45)c(Cl)cc23)CN1C(=O)n1cncn1` (single isomer, unassigned) [Compound 121]: the concentration for half-maximal inhibition (IC50) is 500 to 5000 nM. `CN(CC1(C)CCN1C(=O)n1cnc(Cl)n1)c1nc(OC[C@@]23CCCN2C[C@H](F)C3)nc2c(F)c(-c3ccc(F)c4sc(N)c(C#N)c34)c(Cl)cc12` (single isomer, unassigned) [Compound 183]: the IC50 was in the range of 500 to 5000 nM.

The same experiment, now with this note: Homo sapiens, ≤500 nM, read-out: Inhibition of A549 Cells (IC50).
On to `CC(C)[C@H]1N(C(=O)n2cnc(C(F)F)n2)C[C@]12CC[C@H](C)N(c1nc(OC[C@@]34CCCN3C[C@H](F)C4)nc3c(F)c(-c4ccc(F)c5sc(N)c(C#N)c45)c(Cl)cc13)C2` (atropisomer, axis not shown; (aS)) [Compound 109, (R)-2-amino-4-(6-chloro-4-((1R,4R,7S)-2-(3-(difluoromethyl)-1H-1,2,4-triazole-1-carbonyl)-1-isopropyl-7-methyl-2,6-diazaspiro[3.5]nonan-6-yl)-8-fluoro-2-(((2R,7aS)-2-fluorotetrahydro-1H-pyrrolizin-7a(5H)-yl)methoxy)quinazolin-7-yl)-7-fluorobenzo[b]thiophene-3-carbonitrile], for which the IC50 was no more than 500 nM. The same measure, in the same setting: the figure for `CN(C[C@@H]1CN(C(=O)n2cnc(C#N)n2)[C@@H]1C1CCC1)c1nc(OC[C@@]23CCCN2C[C@H](F)C3)nc2c(F)c(-c3ccc(F)c4sc(N)c(C#N)c34)c(Cl)cc12` (atropisomer, axis not shown; (aS)) [Compound 150, 1-((2R,3R)-3-(((7-((R)-2-amino-3-cyano-7-fluorobenzo[b]thiophen-4-yl)-6-chloro-8-fluoro-2-(((2R,7aS)-2-fluorotetrahydro-1H-pyrrolizin-7a (5H)-yl)methoxy)quinazolin-4-yl)(methyl)amino)methyl)-2-cyclobutylazetidine-1-carbonyl)-1H-1,2,4-triazole-3-carbonitrile] is no more than 500 nM. The same measure, in the same setting: for `CC(C)[C@@H]1[C@H](CN(C)c2nc(OC[C@@]34CCCN3C[C@H](F)C4)nc3c(F)c(-c4ccc(F)c5sc(N)c(C#N)c45)c(Cl)cc23)CN1C(=O)n1cnc(C#N)n1` (atropisomer, axis not shown; (aS)) [Compound 162, 1-((2R,3R)-3-(((7-((R)-2-amino-3-cyano-7-fluorobenzo[b]thiophen-4-yl)-6-chloro-8-fluoro-2-(((2R,7aS)-2-fluorotetrahydro-1H-pyrrolizin-7a (5H)-yl)methoxy)quinazolin-4-yl)(methyl)amino)methyl)-2-isopropylazetidine-1-carbonyl)-1H-1,2,4-triazole-3-carbonitrile] the value was no more than 500 nM. The same measure, in the same setting: the figure for `CCN(C(=O)n1cnc(Cl)n1)[C@@H]1CCN(c2nc(OC[C@@]34CCCN3C[C@H](F)C4)nc3c(F)c(-c4ccc(F)c5sc(N)c(C#N)c45)c(Cl)cc23)[C@@H]1C` (atropisomer, axis not shown; (aS)) [Compound 176, N-((2R,3R)-1-(7-((R)-2-amino-3-cyano-7-fluorobenzo[b]thiophen-4-yl)-6-chloro-8-fluoro-2-(((2R,7aS)-2-fluorotetrahydro-1H-pyrrolizin-7a (5H)-yl)methoxy)quinazolin-4-yl)-2-methylpyrrolidin-3-yl)-3-chloro-N-ethyl-1H-1,2,4-triazole-1-carboxamide] is no more than 500 nM. For `C[C@H]1CC[C@]2(CN(C(=O)n3cnc(C(F)F)n3)[C@@H]2C2(C)CC2)CN1c1nc(OC[C@@]23CCCN2C[C@H](F)C3)nc2c(F)c(-c3ccc(F)c4sc(N)c(C#N)c34)c(Cl)cc12` (atropisomer, axis not shown; (aS)) [Compound 178, (R)-2-amino-4-(6-chloro-4-((1R,4R,7S)-2-(3-(difluoromethyl)-1H-1,2,4-triazole-1-carbonyl)-7-methyl-1-(1-methylcyclopropyl)-2,6-diazaspiro[3.5]nonan-6-yl)-8-fluoro-2-(((2R,7aS)-2-fluorotetrahydro-1H-pyrrolizin-7a (5H)-yl)methoxy)quinazolin-7-yl)-7-fluorobenzo[b]thiophene-3-carbonitrile], the half-maximal inhibitory concentration (IC50) was no more than 500 nM. For `CC1([C@H]2N(C(=O)n3cnc(F)n3)C[C@]23CCCCN(c2nc(OC[C@@]45CCCN4C[C@H](F)C5)nc4c(F)c(-c5ccc(F)c6sc(N)c(C#N)c56)c(Cl)cc24)C3)CC1` (atropisomer, axis not shown; (aS)) [Compound 193, (R)-2-amino-4-(6-chloro-8-fluoro-4-((1R,4R)-2-(3-fluoro-1H-1,2,4-triazole-1-carbonyl)-1-(1-methylcyclopropyl)-2,6-diazaspiro[3.6]decan-6-yl)-2-(((2R,7aS)-2-fluorotetrahydro-1H-pyrrolizin-7a (5H)-yl)methoxy)quinazolin-7-yl)-7-fluorobenzo[b]thiophene-3-carbonitrile], the IC50 is no more than 500 nM. On to `C[C@H]1CC[C@]2(CN(C(=O)n3cnc(F)n3)[C@@H]2C2(C(F)F)CC2)CN1c1nc(OC[C@@]23CCCN2C[C@H](F)C3)nc2c(F)c(-c3ccc(F)c4sc(N)c(C#N)c34)c(Cl)cc12` (atropisomer, axis not shown; (aS)) [Compound 194, (R)-2-amino-4-(6-chloro-4-((1S,4R,7S)-1-(1-(difluoromethyl)cyclopropyl)-2-(3-fluoro-1H-1,2,4-triazole-1-carbonyl)-7-methyl-2,6-diazaspiro[3.5]nonan-6-yl)-8-fluoro-2-(((2R,7aS)-2-fluorotetrahydro-1H-pyrrolizin-7a(5H)-yl)methoxy)quinazolin-7-yl)-7-fluorobenzo[b]thiophene-3-carbonitrile], for which the IC50 is no more than 500 nM.

For the compound `CC(C)C1N(C(=O)n2cnc(Cl)n2)CC12CC(CC#N)CN(c1nc(OC[C@@]34CCCN3C[C@H](F)C4)nc3c(F)c(-c4ccc(F)c5sc(N)c(C#N)c45)c(Cl)cc13)C2` (single isomer, unassigned) [Compound 117], the 50% inhibitory concentration (IC50) is no more than 500 nM. The same measure, in the same setting: for `CCN(C(=O)n1cnc(Cl)n1)[C@@H]1CCN(c2nc(OC[C@@]34CCCN3C[C@H](F)C4)nc3c(F)c(-c4ccc(F)c5sc(N)c(C#N)c45)c(Cl)cc23)[C@@H]1C` (single isomer, unassigned) [Compound 171] the value was no more than 500 nM; for `CN(C(=O)n1cnc(Cl)n1)C1CCN(c2nc(OC[C@@]34CCCN3C[C@H](F)C4)nc3c(F)c(-c4ccc(F)c5sc(N)c(C#N)c45)c(Cl)cc23)C1(C)C` (single isomer, unassigned) [Compound 198], no more than 500 nM.

As to `N#Cc1c(N)sc2c(F)ccc(-c3c(Cl)cc4c(N5CCC6(C5)CN(C(=O)n5cncn5)C6C5CC5)nc(OC[C@@]56CCCN5C[C@H](F)C6)nc4c3F)c12` (single isomer, unassigned) [Compound 203], the IC50 is no more than 500 nM.

For the compound `CC(C)[C@H]1N(C(=O)n2cncn2)C[C@@]12CN(c1nc(OC[C@@]34CCCN3C[C@H](F)C4)nc3c(F)c(-c4ccc(F)c5sc(N)c(C#N)c45)c(Cl)cc13)CCO2` [Compound 104, 2-amino-4-(6-chloro-8-fluoro-2-(((2R,7aS)-2-fluorotetrahydro-1H-pyrrolizin-7a(5H)-yl)methoxy)-4-((1R,4S)-1-isopropyl-2-(1H-1,2,4-triazole-1-carbonyl)-5-oxa-2,8-diazaspiro[3.5]nonan-8-yl)quinazolin-7-yl)-7-fluorobenzo[b]thiophene-3-carbonitrile], the IC50 was no more than 500 nM. `CN(C[C@@H]1CN(C(=O)n2cnc(F)n2)[C@@H]1C1(CC#N)CC1)c1nc(OC[C@@]23CCCN2C[C@H](F)C3)nc2c(F)c(-c3ccc(F)c4sc(N)c(C#N)c34)c(Cl)cc12` [Compound 108, 2-amino-4-(6-chloro-4-((((2S,3R)-2-(1-(cyanomethyl)cyclopropyl)-1-(3-fluoro-1H-1,2,4-triazole-1-carbonyl)azetidin-3-yl)methyl)(methyl)amino)-8-fluoro-2-(((2R,7aS)-2-fluorotetrahydro-1H-pyrrolizin-7a(5H)-yl)methoxy)quinazolin-7-yl)-7-fluorobenzo[b]thiophene-3-carbonitrile]: the IC50 is no more than 500 nM. On the same count and under the same terms, the figure for `C[C@@H]1[C@H](N(C)C(=O)n2cnc(F)n2)CCN1c1nc(OC[C@@]23CCCN2C[C@H](F)C3)nc2c(F)c(-c3ccc(F)c4sc(N)c(C#N)c34)c(Cl)cc12` [Compound 111, N-((2R,3R)-1-(7-(2-amino-3-cyano-7-fluorobenzo[b]thiophen-4-yl)-6-chloro-8-fluoro-2-(((2R,7aS)-2-fluorotetrahydro-1H-pyrrolizin-7a(5H)-yl)methoxy)quinazolin-4-yl)-2-methylpyrrolidin-3-yl)-3-fluoro-N-methyl-1H-1,2,4-triazole-1-carboxamide] is no more than 500 nM.
